Test results reported in the OPERA property sets (Mansouri et al. 2018).

SMILES	melting point [°C]	boiling point [°C]	further results
CC(=O)c1ccc(Cl)c(Cl)c1	76		
O=C1CC[C@@H](C(=O)O)N1	185		
CC(=O)O[C@H]1C[C@@]2(C)[C@@H](C[C@@H](O)[C@H]3[C@@]4(C)CC[C@@H](O)[C@@H](C)[C@@H]4CC[C@@]32C)/C1=C(\CCC=C(C)C)C(=O)O	192		
NNS(=O)(=O)c1ccc(Oc2ccc(S(=O)(=O)NN)cc2)cc1			ready biodegradability: not readily biodegradable
O=c1c2ccccc2oc2ccccc12	174	351	
CCc1ccccc1Br	-67.9	199	
CCC1CCC(C)C1 (centres undefined)			log10 vapour pressure (mmHg): 0.799
CCCCOC(=O)c1ccc(O)cc1	68.5		
c1ccc(C2CCc3ccccc3O2)cc1 (centres undefined)	46.3	332	
Cc1ccc(N)nc1	76.5	227	
COc1ccc(C(=O)Cc2c(CCN(C)C)cc3c(c2OC)OCO3)c(C(=O)O)c1OC	138		
COc1ccc(C)cc1	-32	176	
CCCOC(=O)NCCCN(C)C.Cl	64.2		log10 vapour pressure (mmHg): -6.54
CC1=CCC2C(C)(C)CCC[C@]2(C)[C@@]12CC[C@](C)(CC(=O)O)O2 (some centres undefined)	100		
OC1CCCCCCCCC1	40.5		
O=C(O)COc1ccccc1C(=O)O	191		
COC(=O)CC(C)C		116	log10 vapour pressure (mmHg): 1.15
CCNC(=O)C1CC(C)CCC1C(C)C (centres undefined)	88		
Cc1ccc(O)c(C(C)(C)C)c1	51.5	237	log10 vapour pressure (mmHg): -1.6; ready biodegradability: not readily biodegradable
CC(C)CC(C)Cl (centres undefined)		113	
NCCCCN	27.5	158	
O=C(c1ccc(F)cc1)c1ccc(F)cc1	104		

SMILES	melting point [°C]	boiling point [°C]	further results
Cc1cccc(O)c1O	68	241	
CCC1=CCCC1	-118	106	
Nc1ccc(S(=O)(=O)c2ccc(NC(=O)CCC(=O)O)cc2)cc1	157		
N#CCc1c[nH]c2ccccc12	36		
O=CN1CCCCC1		222	
Nc1nc(N)nc(-c2ccccc2)n1	226		ready biodegradability: not readily biodegradable
C[C@H]1CCC[C@H](C)C1=O		175	
CC(O)C#N (centres undefined)	-40	183	log10 vapour pressure (mmHg): -0.925
Brc1ccc2cccnc2c1	34	290	
COc1ccc2c(c1)O[C@H]1c3ccc(O)cc3OC[C@@H]21	128		
[O-][n+]1ccccc1S	70.5		
Clc1ccc(Oc2ccccc2)c(Cl)c1			log10 vapour pressure (mmHg): -3.04
Nc1ccccc1F	-34.6	175	
Nc1cc([N+](=O)[O-])ccc1O	144		
C=C(CC)CCCC		120	log10 vapour pressure (mmHg): 1.29
COCCCCl		111	
COC(F)(F)C(Cl)Cl	-35	105	log10 Henry constant (atm·m³/mol): -2.43
FC=C(F)Br		19	
CCCCCCCCOC(=O)CCC	-55.6	244	
CCC(C)C(C)C(C)C (centres undefined)		139	log10 vapour pressure (mmHg): 0.955
CCCCOC(=O)C(C)O (centres undefined)	-28	186	log10 vapour pressure (mmHg): -0.398
CC(C)CCSCCC(C)C	-74.6	211	log10 vapour pressure (mmHg): -0.497

SMILES	melting point [°C]	boiling point [°C]	further results
CC=C[C@H](O)CCCC		175	
CCCCNC(=O)NS(=O)(=O)c1ccc(C)cc1	128		
COc1cc(CNC(=O)CCCC/C=C/C(C)C)ccc1O	65		
Nc1cccc(Cl)c1Cl	24	252	
O=[N+]([O-])c1cc([N+](=O)[O-])c2ccccc2c1O	131		
N#CCCS(=O)(=O)O.[Na+]	244		
Cc1cccc2c1cc(C)c1cccc(C)c12			log10 biodegradation half-life (days): 1.92
C1=CCOC1		66.5	log10 vapour pressure (mmHg): 2.2
CCCCCCCCCCC(C)C(=O)O (centres undefined)	22		
CCCCCCC(=O)CCCC	2	227	
O=C(O)COc1ccc(F)cc1	104		
Nc1cc(C(Cl)=C(Cl)Cl)c(S(N)(=O)=O)cc1S(N)(=O)=O	203		
C=CC(=O)OCC(F)(F)C(F)F		132	
Cc1cc2ccccc2o1		198	log10 vapour pressure (mmHg): -0.312
COc1ccccc1C	-34.1	171	
O=C(O)/C=C\C(=O)O	130		ready biodegradability: readily biodegradable
CCC1CCCCC1	-111	132	log10 biodegradation half-life (days): 0.301; log10 vapour pressure (mmHg): 1.11; ready biodegradability: not readily biodegradable
Cc1ccc2ccc3ccc(C)cc3c2c1	145		
CCNC(=O)COC(=O)c1ccccc1	106		
COc1cc(OC)c(C(=O)O)cc1OC	145	300	
CC(CBr)c1ccccc1 (centres undefined)	-59.3	188	
